Data reported in patent US4215111A, “Peptides having ubiquitin-like activity” (Ortho Pharmaceutical Corporation, priority 1979, dated 1980).
Square brackets hold non-standard residues; d marks the D form. Peptide text beside a SMILES is read from it. Sar = CNCC(=O)O

Tests used:
[1] = tested on: Thy-1+ T-lymphocytes and complement receptor (CR+) B-lymphocytes differentiation; assay: In vitro induction of Thy-1+ T cell and CR+ B cell differentiation from nu/nu mouse spleen precursor cells; assay type: cell-based, nu/nu mice (BALB/c background); conditions: for Active Concentration Range: induction of Thy-1+ T-lymphocytes and CR+ B-lymphocytes in vitro
Protocol: To determine the activity and characteristics of the peptide of Example I, determinations were carried out on healthy 5-6 week nu/nu mice of both sexes, the mice being bred on a BALB/c background (thymocytes expressing Thy-1.2 surface antigen) and maintained under conventional conditions. For the antisera, anti Thy-1.2 sera were prepared in Thy-1 congenic mice.
For the induction in vitro of Thy-1^+ T cells or CR^+ B cell differentiation, the induction of thymocyte differentiation from prothymocytes in vitro was performed as described by Komuro and Boyse, (Lancet, 1, 740, 1973), using the acquisition of Thy-1.2 as a marker of T cell differentiation. The induction of CR^+ B cell differentiation from CR^- B cell precursors in vitro was performed under similar conditions using as the assay criterion, the capacity of CR^+ B cells to bind sheep erythrocytes coated with subagglutinating quantities of rabbit antibody and nonlytic complement. Spleen cell populations from healthy nu/nu mice fractionated on discontinuous bovine serum albumin gradients were used as the source of both precursor types (Thy-1^- and CR^-) because they have few or no Thy-1^+ cells and low numbers of CR^+ cells.

[2] = reference application; cited from earlier work

## NCCCC[C@H](NC(=O)[C@@H](N)CCC(N)=O)C(N)=O [Example I, H-GLN-LYS-NH2] (H-Gln-Lys-NH2)
[1]
  potency relative to the thymopoietin pentapeptide: same potency as the thymopoietin pentapeptide
[1]; induction of Thy-1+ T and CR+ B lymphocyte differentiation
  ubiquitin-like biological activity (in words): selectivity of actions similar to that of ubiquitin

## CNCC(=O)N[C@@H](CCC(N)=O)C(=O)N[C@@H](CCCCN)C(N)=O [IV, H--SAR--GLN--LYS--NH2] (H-[Sar]-Gln-Lys-NH2)
[1]
  Active Concentration Range: 1 to 10 µg/mL

## CNCC(=O)N(C)CC(=O)N(C)CC(=O)N[C@@H](CCC(N)=O)C(=O)N[C@@H](CCCCN)C(N)=O [VI, H--SAR--SAR--SAR--GLN--LYS--NH2] (H-[Sar][Sar][Sar]QK-NH2)
[1]
  potency relative to the thymopoietin pentapeptide: approximately 10 million

## CNCC(=O)N(C)CC(=O)N(C)CC(=O)N(C)CC(=O)N[C@@H](CCC(N)=O)C(=O)N[C@@H](CCCCN)C(N)=O [VII, H--SAR--SAR--SAR--SAR--GLN--LYS--NH2] (H-[Sar][Sar][Sar][Sar]QK-NH2)
[1]
  Active Concentration Range: 1e-06 to 0.0001 µg/mL

## H-ALA-ASN-ILE-GLN-LYS-OH (H-ANIQK-OH)
[2]
  concentration at which activity is possessed: 0.1 µg/mL

## H-TYR-ALA-ILE-GLN-LYS-OH (H-YAIQK-OH)
[2]
  concentration at which activity is possessed: 0.1 µg/mL

## H-TYR-ASN-ALA-GLN-LYS-OH (H-YNAQK-OH)
[2]
  concentration at which activity is possessed: 0.1 µg/mL
